In patent US9328078B2, “Benzofurazan anti-amyloid compounds and methods” (Treventis Corporation, priority 2012, dated 2016):

Columns and labels:
[1] = target: Aβ40 (Homo sapiens, UniProt P05067); experiment: kinetic ThT assay for Aβ aggregation; format: biochemical; conditions: for inhibition at 5 µM: 80 h, compound 5 μm, read-out: % inhib Aβ 40 (5 μm); for inhibition at 10 µM: compound 10 μM, read-out: % inhib Aβ 40 10 μM
Protocol: Aβ40 (1.0 mg) was pre-treated in a 1.5 mL microfuge tube with HFIP (1 mL) and sonicated for 20 min to disassemble any pre-formed Aβ aggregates. The HFIP was removed with a stream of argon and the Aβ dissolved in Tris base (5.8 mL, 20 mM, pH˜10). The pH was adjusted to 7.4 with concentrated HCl (˜10 μL) and the solution filtered using a syringe filter (0.2 μm) before being used.
The kinetic ThT assay for AP aggregation is similar to that of Chalifour et al (Chalifour et al, 2003, J. Biol. Chem. 278:34874-81). Briefly, pre-treated Aβ40 or Aβ42 (40 μM in 20 mM Tris, pH 7.4) was diluted with an equal volume of 8 μM Thioflavin T (ThT) in Tris (20 mM, pH 7.4, 300 mM NaCl). Aliquots of Aβ/ThT (200 μL) were added to wells of a black polystyrene 96-well plate, followed by 2 μL of a compound in DMSO (variable concentration), or DMSO alone (controls). Incubations were performed in triplicate and were taken to contain 20 μM Aβ, various concentration of compound in 20 mM Tris, pH 7.4, 150 mM NaCl, 1% DMSO. Plates were covered with clear polystyrene lids and incubated at 37° C. in a Tecan Genios microplate reader.
Fluorescence readings (λex=450 nm, λem=480 nm) were taken every 15 min., after first shaking at high intensity for 15 s and allowing to settle for 10 s before each reading. Active compounds attenuated the increase in fluorescence over time that occurred in controls. In FIGS. 1-7, the time this procedure was performed extended to 80 hours (rightmost part of X-axis), at which point fluorescence increase generally reached an asymptote. Applying a definition of DMSO control at 80 hr as 100% aggregation (0% inhibition) and DMSO control at 0 hr as 0% aggregation (100% inhibition), a % inhibition score where higher is better can be calculated for a given concentration of compound. By repeating this procedure over several concentrations, a […] (IC50) can be measured, as is given in the table below for some compounds.
Data is summarized in the table below; numbers given in parenthesis are the values in that particular experiment for compound ID 1027, given as the first entry in this table for comparison.

[2] = target: T1, Biotin-Aβ(1-42) (Homo sapiens, UniProt P05067); experiment: Biotin-Aβ(1-42) oligomeric assay; format: biochemical; conditions: inhibition of oligomer formation at 25 uM, 30 minutes; higher = more inhibition
T1 construct: Biotin-Aβ(1-42) (AnaSpec) at 0.2 mg/ml in hexafluoroisopropanol (HFIP); purchased AnaSpec
T1 sequence (P05067 672-713 limits assumed): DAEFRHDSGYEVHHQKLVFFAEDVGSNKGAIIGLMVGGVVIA
Protocol: The following assay was adapted from H. LeVine III. Biotin-avidin interaction-based screening assay for Alzheimer's β-peptide oligomer inhibitors, Anal. Biochem. 356 (2006) 265-272 and A. Frey, B. Meckelein, D. Externest, M. A. Schmidt A stable and highly sensitive 3,3′,5,5′-tetramethylbenzidine-based substrate reagent for enzyme-linked immunosorbent assays, J. Immunol. Methods 233 (2000) 47-56.
Biotin-Aβ(1-42) (AnaSpec) at 0.2 mg/ml in hexafluoroisopropanol (HFIP) was further diluted in 20 volumes of HFIP, which was then evaporated under a stream of argon. 20 volumes of trifluoroacetic acid was added and let rest for 10 minutes, then evaporated under a stream of argon. Another 20 volumes of HFIP was added and evaporated under a stream of argon. Biotin-Aβ(1-42) was brought to a final concentration of 2.3 mg/ml in DMSO. Oligomer formation was initiated in 96 well round bottom polypropylene plates by diluting the prepared biotin-Aβ(1-42) 50× in 20 mM sodium phosphate pH 7.5, 150 mM NaCl in the presence of vehicle or compound. Oligomer formation was halted after 30 minutes by the addition of 50 μl/well of 0.3% Tween-20.
96 well Costar high-binding microplates were coated overnight at +4° C. with 50 μl/well of 1 ug/ml NeutrAvidin (ThermoScientific) in 10 mM sodium phosphate, pH 7.5. Plates were blocked for 2 hours at room temperature with 200 μl/well 20 mM sodium phosphate pH 7.5, 150 mM NaCl, 0.1% Tween-20. The oligomer preparation was transferred at 50 μl/well to the blocked plate and incubated for 2 hours at room temperature with shaking at 150 rpm. The plate was then washed three times with 200 μl/well 20 mM tris-HCl pH 7.5, 34 mM NaCl, 0.1% Tween-20 (TBS-T). Streptavidin-HRP (Rockland Immunochemicals) [1:20,000] in 20 mM sodium phosphate pH 7.5, 150 mM NaCl, 0.1% Tween-20 was added at 50 μl/well and incubated in the dark at room temperature for 1 hour with shaking at 150 rpm. The plate was washed three times with 200 μl/well of TBS-T. Tetramethylbenzidine/H2O2 substrate was prepared by mixing 250 μl of 41 mM 3,3′,5,5′-tetramethylbenzidine, 8.2 mM tetrabutylammonium borohydride in dimethylacetamide with 10 ml of 205 mM K3 citrate pH 4.0, 3.075 mM H2O2 and incubating for 15 minutes at room temperature. Prepared substrate solution was added at 100 μl/well and the reaction was allowed to proceed for 15 minutes, after which it was terminated by the addition of 100 μl/well of 1% H2SO4. The OD450nm was determined using a Tecan Infinite F200 plate reader.

[3] = DMSO control at 80 hr = 0% inhibition, parenthesis = compound 1027

Aβ40, sequence (P05067 672-711 limits assumed, species assumed): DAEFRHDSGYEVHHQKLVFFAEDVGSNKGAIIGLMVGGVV

| Structure (SMILES) | inhibition at 5 µM [1, 3] [%] | inhibition at 10 µM [1, 3] [%] | inhibition at 25 µM [2] [%] | IC50 ([1]; ThT fluorescence, 20 μM Aβ, 37° C., up to 80 hr, parenthesis = compound 1027 in same experiment, read-out: IC50 A β 1-40) [µM] | inhibition at 20 µM ([1]; compound 20 μM, DMSO control at 80 hr = 0% inhibition, parenthesis = compound 1027, read-out: % inhib. A β 40 (20 μM)) [%] |
| --- | --- | --- | --- | --- | --- |
| CC(O)C1CN(c2cc(-c3cccc(C(O)C(F)(F)F)c3)cc3nonc23)C1 (stereo not drawn) [TRV-1451] | 54 | 73 | 4 |  |  |
| OC(c1cccc(-c2cc(N3CCC(N4CCCC4)CC3)c3nonc3c2)c1)C(F)(F)F (stereo not drawn) [TRV-1387] | 40 | 52 | 75 | 5.76 | 78 |
| OC[C@@H]1CCCN1c1cc(-c2cccc(C(O)C(F)(F)F)c2)cc2nonc12 (stereo partly drawn) [TRV-1450] | 57 | 79 | 32 |  |  |
| CC(C)(O)[C@@H]1CCCN1c1cc(-c2cccc(C(O)C(F)(F)F)c2)cc2nonc12 (stereo partly drawn) [TRV-1449] | 55 | 72 | -3 |  |  |
| OC(c1cccc(-c2cc(N3CC(CN4CCOCC4)C3)c3nonc3c2)c1)C(F)(F)F (stereo not drawn) [TRV-1455] | 41 | 60 | 29 |  |  |
| OC(c1cccc(-c2cc(N3CCC[C@H]3CN3CCCC3)c3nonc3c2)c1)C(F)(F)F (stereo partly drawn) [TRV-1452] | 50 | 63 | 76 |  |  |
| OC1CCN(c2cc(-c3cccc(C(O)C(F)(F)F)c3)cc3nonc23)C1 (stereo not drawn) [TRV-1448] | 45 | 55 | -23 |  |  |
| CC(C)(O)C1CN(c2cc(-c3cccc(C(O)C(F)(F)F)c3)cc3nonc23)C1 (stereo not drawn) [TRV-1435] | 52 | 66 | 29 |  |  |

The next lines start with the values.

| inhibition at 5 µM [1, 3] [%] | inhibition at 10 µM [1, 3] [%] | inhibition at 25 µM [2] [%] | IC50 ([1]; ThT fluorescence, 20 μM Aβ, 37° C., up to 80 hr, parenthesis = compound 1027 in same experiment, read-out: IC50 A β 1-40) [µM] | inhibition at 20 µM ([1]; compound 20 μM, DMSO control at 80 hr = 0% inhibition, parenthesis = compound 1027, read-out: % inhib. A β 40 (20 μM)) [%] | Structure (SMILES) |
| --- | --- | --- | --- | --- | --- |
| 51 | 65 | 82 |  |  | OC(c1cccc(-c2cc(N3CC(CN4CCCC4)C3)c3nonc3c2)c1)C(F)(F)F (stereo not drawn) [TRV-1457] |
| 47 | 62 | -32 |  |  | CN(Cc1nccs1)c1cc(-c2cccc(C(O)C(F)(F)F)c2)cc2nonc12 (stereo not drawn) [TRV-1459] |
| 36 | 64 | 3 |  |  | OC(c1cccc(-c2cc(N3CC(N4CCCC4)C3)c3nonc3c2)c1)C(F)(F)F (stereo not drawn) [TRV-1456] |
| 36 | 44 | 10 |  |  | CN(Cc1ccc(F)cc1)c1cc(-c2cccc(C(=O)N3CCCC3)c2)cc2nonc12 [TRV-1460] |
| 36.9 | 49 | 72 |  |  | CN(C)C1CCN(c2cc(-c3cccc(C(O)C(F)(F)F)c3)cc3nonc23)CC1 (stereo not drawn) [TRV-1466] |
| 53 | 48 | 23 |  |  | OC(c1cccc(-c2cc(N3CC(N4CCOCC4)C3)c3nonc3c2)c1)C(F)(F)F (stereo not drawn) [TRV-1462] |
|  |  | 69 |  |  | CN(C)CCCN(C)c1cc(-c2cccc(C(O)C(F)(F)F)c2)cc2nonc12 (stereo not drawn) [TRV-1465] |
| 58.9 | 71.7 | -28 |  |  | COC(C)C1CN(c2cc(-c3cccc(C(O)C(F)(F)F)c3)cc3nonc23)C1 (stereo not drawn) [TRV-1461] |
